Measured values: patent publication US4248884A, “2-Pyrrolidine methanol derivatives utilizable as medicaments” (Pharmindustrie, priority 1978, dated 1981)
Read-outs that look alike come from different tables or passages of the source.

Tests used:
[1] = test system: reserpine induced hypothermia (central nervous system); experiment: Action on the central nervous system: reserpine induced hypothermia in mice; assay type: in vivo; conditions: Mus musculus, oral, read-out: DE50 oral (dose exerting an antihypothermic effect equal to 50% of that caused by 15 mg/kg oral imipramine)
Description: The activity of the products on the central nervous system has been shown by the test of reserpine induced hypothermia in mice, according to the method of D. M. Asken, Life Sciences, 1963, vol. 2, p. 725, the disclosure of which is incorporated herein by reference,
The results are expressed by a DE50 or dose of product, in mg/kg, capable of exerting an antihypothermic effect equal to 50% of the antihypothermic effect caused by 15 mg/kg (oral) of imipramine.

[2] = test system: serum triglycerides; experiment: Hypotriglyceridemiant activity: olive oil induced experimental hypertriglyceridemia in fasting rats; assay type: in vivo, male rats
Description: Journal of Pharmacology, 1973, 23, 131, the disclosure of which is incorporated herein by reference.
The rats are killed two hours after the administration of the oil by decapitation. The serum is separated by centrifuging and the triglycerides are determined on an amount of 0.2 ml of serum by extraction with a heptane-isopropanol mixture and colorimetry according to the method of Van Handel et al., J. Lab. and Clin. Med., 1957, 50, 152-157, by using an assembly of analytical reagents known commercially as "Triclycerides-kit Bio Merieux".

[3] = Acute toxicity by oral administration; conditions: in vivo; male mouse CD1, oral, after three days of observation
Excerpt: The acute toxicities of the compounds according to the invention have been determined on the male mouse CD1 (Charles River) by oral administration. The LD50 have been calculated, after three days of observation, by the cumulative method of J. J. Reed et al. (Am. J. Hyg., 1938, 27, 493), the disclosure of which is incorporated herein by reference.

[4] = Rattus norvegicus, po, read-out: % of inhibition (relative reduction of the proportion of serum triglycerides with respect to control animals)
[5] = rat, oral, 100 mg/kg, 2 h before 20 ml/kg olive oil, Student Fischer T test 0.01, read-out: % of inhibition (relative reduction of the proportion of serum triglycerides with respect to control animals)

Row | Compound | ED50 [1] | LD50 at 72 h [3] | further results
1 | O[C@H](c1ccccc1)[C@@H]1CCCN1 (relative stereo) [Example 1, α-phenyl-2-pyrrolidine-methanol (erythro isomer)] | 4.5 mg/kg | – | inhibition at 50 mg/kg [2, 4]: 33%
2 | O[C@H](c1ccccc1)[C@H]1CCCN1 (relative stereo) [Example 2, α-phenyl-2-pyrrolidine methanol (threo isomer)] | > 150 mg/kg | 600 mg/kg | inhibition at 6.25 mg/kg [2, 4]: 41%; inhibition at 50 mg/kg [2, 4]: 45%; hypotriglyceridemiant activity (in words) ([2]; rat, oral, Example 2 at 6.25 mg/kg): still very active
3 | O=C(O)c1cccnc1 [Nictotinic acid, nicotinic acid, reference compound] | – | – | inhibition at 100 mg/kg [2, 4]: 50%
4 | OCCN1CCC[C@@H]1[C@H](O)c1ccccc1 (relative stereo) [Example 5, α-phenyl-2-(1-β-hydroxyethyl-pyrrolidine)methanol(threo isomer)] | – | 675 mg/kg | inhibition at 100 mg/kg [2, 5]: 45%
5 | CN1CCC[C@@H]1[C@H](O)c1ccccc1 (relative stereo) [Example 4, α-phenyl-2-(1-methyl-pyrrolidine)methanol (threo isomer)] | – | 800 mg/kg | –
6 | O[C@H](c1ccccc1)[C@H]1CCCN1Cc1ccccc1 (relative stereo) [Example 3, α-phenyl-2-(1-benzyl-pyrrolidine) methanol (threo isomer)] | – | 270 mg/kg | –
7 | O[C@H](c1ccc(C2CCCCC2)cc1)[C@@H]1CCCN1 (relative stereo) [Example 8, α-(4-cyclohexyl-phenyl)-2-pyrrolidine methanol (erythro isomer)] | – | > 900 mg/kg | –
8 | O[C@H](c1ccc(Cl)cc1)[C@H]1CCCN1 (relative stereo) [Example 7, α-(4-chloro-phenyl)-2-pyrrolidine methanol (threo isomer)] | > 50 mg/kg | 400 mg/kg | inhibition at 100 mg/kg [2, 5]: 41%
9 | O[C@H](c1ccc(Cl)cc1)[C@@H]1CCCN1 (relative stereo) [Example 6, α-(4-chloro-phenyl)-2-pyrrolidine methanol (erythro isomer)] | 18 mg/kg | 675 mg/kg | –
10 | CC(C)(C)c1ccc([C@@H](O)[C@@H]2CCCN2)cc1 (relative stereo) [Example 10, α-(4-tertiobutyl-phenyl)-2-pyrrolidine methanol (erythro isomer)] | – | 600 mg/kg | –
